Like-named read-outs stand apart in the source and are kept apart here.
Tests used:
[1] = tested on: HCV replication in H/FL-Neo replicon cell line (genotype 1a full length construct); test: microbe, parasite or virus in culture; assay type: cell-based, hepatitis C virus
Method: (§1) Antiviral activity of nitazoxanide, tizoxanide, interferon α, ribavirin and 2′-C-methyl cytidine was assessed in five different HCV replicon cell lines: (1) AVA5, a subgenomic construct of genotype 1b (Blight et al., 2000, Science 290:1972-1974); (2) H/FL-Neo, a genotype 1a full length construct (Blight et al., 2003, Journal of Virology 77:3181-3190); (3) JWT, a subgenomic construct of genotype 1b (Pfeiffer and Kirkegaard, 2005, Journal of Virology, 79:2346-2355); (4) 4-3-10, a subgenomic construct of genotype 1b, developed by a protocol that involved serial passage of JWT cells in 100 μM for one month followed by 400 μM ribavirin for two weeks (Pfeiffer and Kirkegaard, 2005, Journal of Virology, 79:2346-2355); and (5) RP7, a subgenomic construct of genotype 1b (Elazar et al., 2003, Journal of Virology 77:6055-6061).
(§2) Antiviral activity for each test compound was determined as previously described (Okuse et al., 2005, Antiviral Research 65:23-34). Briefly, replicon cell lines were maintained as sub-confluent cultures on 96-well plates. Compounds were added daily for three days in fresh medium. Twenty-four hours after the last dose of compound, antiviral activity was determined by blot hybridization analysis of intracellular HCV RNA, and cytotoxicity was assessed by neutral red dye uptake. EC50, EC90, CC50 and selectivity index were calculated for each compound tested in a replicon cell line. […] Selectivity index=CC50 divided by EC50. EC50, EC90 and CC50 values (±standard deviations [S.D.]) were calculated by linear regression analysis using data combined from all treated cultures.
(§3) Nitazoxanide and tizoxanide were provided by Romark Laboratories, L.C. (Tampa, Fla. USA). […] Ribavirin was purchased from Sigma-Aldrich (St. Louis, Mo. USA). 2′-C-methyl cytidine (Pierra, et al. 2005, Nucleosides Nucleotides Nucleic Acids, 24:767-770) was purchased from Moraveck Biochemicals, Inc. (La Brea, Calif. USA). […] Ribavirin, nitazoxanide, tizoxanide and 2′-C-methyl cytidine were solubilized in 100% tissue culture grade DMSO (Sigma). […] Daily aliquots of test compounds were made from the stock solutions in individual tubes and stored at the appropriate temperatures. On each day of treatment, daily aliquots of the test compounds were suspended into culture medium at room temperature, and immediately added to the cell cultures, thereby subjecting each aliquot of test compound to the same, limited, number of freeze-thaw cycles.

[2] = tested on: HCV replication in JWT replicon cell line (subgenomic construct of genotype 1b); test: microbe, parasite or virus in culture; assay type: cell-based, hepatitis C virus
Method: as §1, §2, §3

[3] = tested on: HCV replication in 4-3-10 replicon cell line (subgenomic genotype 1b, JWT cells passaged in ribavirin); test: microbe, parasite or virus in culture; assay type: cell-based, hepatitis C virus
Method: as §1, §2, §3

[4] = Cytotoxicity, neutral red dye uptake, JWT; assay type: cell-based; details: human
Source text: (§4) Selectivity index=CC50 divided by EC50.

[5] = Cytotoxicity, neutral red dye uptake, AVA5; assay type: cell-based; details: human
Method: (§7) Briefly, replicon cell lines were maintained as sub-confluent cultures on 96-well plates. Compounds were added daily for three days in fresh medium. Twenty-four hours after the last dose of compound, antiviral activity was determined by blot hybridization analysis of intracellular HCV RNA, and cytotoxicity was assessed by neutral red dye uptake. EC50, EC90, CC50 and selectivity index were calculated for each compound tested in a replicon cell line. EC50=drug concentration producing a 50% reduction of intracellular HCV RNA relative to the average levels in untreated cultures. EC90=drug concentration producing a 90% reduction of intracellular HCV RNA relative to the average levels in untreated cultures. CC50=drug concentration producing a 50% reduction of neutral red dye uptake relative to the average levels in untreated cultures. Selectivity index=CC50 divided by EC50. EC50, EC90 and CC50 values (±standard deviations [S.D.]) were calculated by linear regression analysis using data combined from all treated cultures.

[6] = tested on: HCV replication in AVA5 replicon cell line (subgenomic construct of genotype 1b); test: microbe, parasite or virus in culture; details: for S.I. = CC50/EC50: AVA5 cell cultures (Table 2)
Method: as §1, §2, §3
Analyses of interactions between compounds used in combination treatments were performed using Calcusyn™ software (Biosoft, Cambridge, UK).

[7] = Cytotoxicity, neutral red dye uptake, 4-3-10; assay type: cell-based; details: human
Source text: as §4

[8] = tested on: HCV replication in five HCV genotype 1-derived replicon cell lines; test: Median over the five HCV replicon cell lines; assay type: cell-based, hepatitis C virus; details: median of the replicon cell lines; for EC50 / EC90: Hepatitis C virus
Method: as §1, §2

[9] = Cytotoxicity, neutral red dye uptake, RP7; assay type: cell-based; details: human
Method: as §4
(§5) The parental replicon-containing cell line was established by electroporation of RNA transcribed in vitro off of the Sca-I-linearized Bart 79I plasmid into Huh-7 cells (Elazar et al., 2003). Bart79I encodes for a second-generation high-efficiency bi-cistronic sub-genomic replicon of genotype 1b containing a single adaptive mutation (S1179I) in the NS5A gene, and the neomycinphosphotransferase gene in the first cistron. The electroporated cells were plated along with naïve Huh-7 feeder cells and grown in medium—DMEM (4.5 g/l glucose, L-glutamine and sodium pyruvate—Mediatech 10-013-CV), 10% fetal bovine serum, 1% Penicillin-streptomycin, 1% L-glutamine (final concentration 2 mM), 1×MEM Non-Essential Amino Acids (100×) (Invitrogen)—and 1 mg/ml G418. […] One of the resulting colonies was isolated, expanded, passaged in 700 μg/ml G418, and termed RP-7.

[10] = tested on: HCV replication in RP7 replicon cell line (subgenomic construct of genotype 1b); test: microbe, parasite or virus in culture; assay type: cell-based, hepatitis C virus
Method: as §1, §2, §3
(§6) To evaluate the effect of interferon alpha following pre-treatment with nitazoxanide or tizoxanide, a parental replicon-containing cell line (RP-7) was serially passaged in increasing concentrations of nitazoxanide or tizoxanide. Anti-HCV activity of interferon alpha-2b was determined using the parental cell line and using the cell lines obtained after passage in nitazoxanide or tizoxanide. Anti-HCV activity was determined by the methods described above.
as §5

[11] = Cytotoxicity, neutral red dye uptake, H/FL-Neo; assay type: cell-based; details: human
Method: as §7

HCV replication = test: Effect of nitazoxanide pre-treatment and treatment duration (3 or 6 days) on antiviral activity in replicon cultures; assay type: cell-based, hepatitis C virus; details: for EC50 / EC90: Hepatitis C virus; for EC50, IFNα-2b / EC90, IFNα-2b: expressed as IFNα-2b concentration
Method: as §2, with “Compounds were added daily for three days in fresh medium.” left out
Antiviral activity and cytotoxicity was determined 24 hours after the end of each respective treatment as described previously.

[12] = tested on: HCV replication in RP7 cells passaged in nitazoxanide; test: HCV replicon antiviral assay, RP7 cells passaged in nitazoxanide; assay type: cell-based, hepatitis C virus; details: cell lines passaged in nitazoxanide or tizoxanide
Method: as §2
as §6, with “above. […]” for “above.”

AVA5 cells = test: Cytotoxicity, neutral red dye uptake, AVA5; assay type: cell-based; details: AVA5 cell cultures, mono and combination treatments (Table 2)
Method: as §7

[13] = Hepatitis C virus, read-out: EC50
[14] = Hepatitis C virus, read-out: EC90
[15] = AVA5 cell cultures, mono and combination treatments (Table 2)
[16] = Hepatitis C virus, GETYPE1B, Ava5, AVA5 cell cultures, mono and combination treatments (Table 2)
[17] = 4-3-10, interferon α-2b in IU/ml
[18] = AVA5 (Table 2), values for IFNα-2b expressed in IU/mL

| Compound | S.I. (Selectivity Index) = CC50/EC50 [1] | EC50 [1, 13] [µM] | EC90 [1, 14] [µM] | S.I. (Selectivity Index) = CC50/EC50 [2] | EC50 [2, 13] [µM] | EC90 [2, 14] [µM] | S.I. (Selectivity Index) = CC50/EC50 ([3]; 4-3-10) | EC50 ([3]; Hepatitis C virus) [µM] | EC90 ([3]; Hepatitis C virus) [µM] | S.I. (Selectivity Index) = CC50/EC50 ([6]; AVA5) | S.I. = CC50/EC50 [6] | EC50 ([6]; Hepatitis C virus, Ava5, 72 h) [µM] | EC90 ([6]; Hepatitis C virus, Ava5, AVA5) [µM] | EC90 [6, 16] [µM] | EC50 [8] [µM] | EC90 [8] [µM] | CC50 at 3 days [9] [µM] | S.I. (Selectivity Index) = CC50/EC50 [10] | EC50 [10, 13] [µM] | EC90 [10, 14] [µM] | also measured |
| --- | --- | --- | --- | --- | --- | --- | --- | --- | --- | --- | --- | --- | --- | --- | --- | --- | --- | --- | --- | --- | --- |
| O=C(Nc1ncc([N+](=O)[O-])s1)c1ccccc1O [Tizoxanide, tizoxanide] | 17 | 0.25 ± 0.03 | 1 ± 0.1 | 150 | 0.16 ± 0.02 | 0.76 ± 0.03 | 191 | 0.11 ± 0.05 | 0.55 ± 0.08 | 208 | 100 | 0.12 ± 0.01 | 0.77 ± 0.1 | 0.81 ± 0.92 | 0.15 | 0.77 | 25 ± 1 | 167 | 0.15 ± 0.01 | 0.94 ± 0.1 | CC50 at 3 days ([4]; JWT, read-out: CC50): 24 ± 2.9 µM; CC50 at 3 days ([5]; AVA5): 25 ± 2.8 µM; CC50 at 3 days [5, 15]: 15 ± 1.2 µM; CC50 at 3 days [7]: 21 ± 1.1 µM; CC50 at 3 days [11]: 4.2 ± 0.2 µM |
| NC(=O)c1ncn([C@@H]2O[C@H](CO)[C@@H](O)[C@H]2O)n1 [Ribavirin] | – | – | – | 3.9 | 23 ± 2.2 | 62 ± 1.7 | – | – | – | 1.2 | – | 70 ± 0.5 | 220 ± 34 | – | 69 | 122 | 77 ± 4.9 | 1.2 | 69 ± 4.4 | 122 ± 13 | CC50 at 3 days [4]: 89 ± 7.5 µM; CC50 at 3 days ([5]; AVA5 HCV replicon cells): 84 ± 4.7 µM |
| CC(=O)Oc1ccccc1C(=O)Nc1ncc([N+](=O)[O-])s1 [Nitazoxanide, nitazoxanide] | 149 | 0.33 ± 0.05 | 1.1 ± 0.1 | 354 | 0.11 ± 0.01 | 1 ± 0.2 | 340 | 0.1 ± 0.03 | 0.87 ± 0.16 | 300 | 181 | 0.13 ± 0.02 | 1 ± 0.2 | 0.93 ± 0.11 | 0.13 | 1 | 38 ± 0.8 | 238 | 0.16 ± 0.01 | 1.2 ± 0.1 | CC50 at 3 days ([4]; JWT, read-out: CC50): 39 ± 1 µM; CC50 at 3 days ([5]; AVA5): 39 ± 3.9 µM; CC50 at 3 days [5, 15]: 38 ± 1.8 µM; EC50 (HCV replication; 72 h, duration 3 days, expressed as NTZ concentration, read-out: EC50, NTZ): 0.22 ± 0.03 µM; EC90 (HCV replication; 72 h, duration 3 days, expressed as NTZ concentration, read-out: EC90, NTZ): 1 ± 0.1 µM; EC50 (HCV replication; 144 h, duration 6 days, expressed as NTZ concentration, read-out: EC50, NTZ): 0.2 ± 0.02 µM; EC90 (HCV replication; 144 h, duration 6 days, expressed as NTZ concentration, read-out: EC90, NTZ): 0.92 ± 0.1 µM; CC50 at 3 days [7]: 34 ± 0.4 µM; CC50 at 3 days [11]: 49 ± 1.5 µM |
| Interferon α-2b | – | – | – | – | – | – | – | – | – | – | – | – | – | – | – | – | – | – | – | – | EC50 ([1]; interferon α-2b in IU/ml): 2.1 ± 0.2 IU/ml; EC90 ([1]; interferon α-2b in IU/ml): 9.4 ± 0.9 IU/ml; EC50 ([2]; interferon α-2b in IU/ml): 0.77 ± 0.03 IU/ml; EC90 ([2]; interferon α-2b in IU/ml): 2.6 ± 0.2 IU/ml; EC50 [3, 17]: 0.86 ± 0.06 IU/ml; EC90 [3, 17]: 5.7 ± 0.4 IU/ml; EC50, IFNα-2b (HCV replication; duration 3 days): 1.9 ± 0.3 IU/mL; EC90, IFNα-2b (HCV replication; duration 3 days): 8.3 ± 0.9 IU/mL; EC50, IFNα-2b (HCV replication; duration 6 days): 1.7 ± 0.2 IU/mL; EC90, IFNα-2b (HCV replication; duration 6 days): 7.8 ± 0.8 IU/mL; EC50 [6, 18]: 1.9 ± 0.22 IU/mL; EC90 [6, 18]: 8.9 ± 0.92 IU/mL; EC50 ([6]; AVA5, interferon α-2b in IU/ml): 1.5 ± 0.2 IU/ml; EC90 ([6]; AVA5, interferon α-2b in IU/ml): 8.2 ± 0.8 IU/ml; Median EC50 ([8]; interferon α-2b): 0.86 IU/ml; Median EC90 ([8]; interferon α-2b): 5.7 IU/ml; EC50 ([10]; interferon α-2b in IU/ml): 0.41 ± 0.01 IU/ml; EC90 ([10]; interferon α-2b in IU/ml): 3.6 ± 0.2 IU/ml; Resistance after serial passage of the parental cell line in nitazoxanide or tizoxanide [12]: did not induce resistance |
| C[C@@]1(O)[C@H](O)[C@@H](CO)O[C@H]1n1ccc(N)nc1=O [2′-C-methyl cytidine] | >556 | 1.8 ± 0.2 | 8.1 ± 0.8 | >136 | 2.2 ± 0.1 | 8.2 ± 0.7 | >143 | 2.1 ± 0.1 | 8 ± 0.9 | >143 | >188 | 2.1 ± 0.2 | 8.1 ± 0.7 | 8.3 ± 0.7 | 2.1 | 8.1 | > 300 | >150 | 2 ± 0.1 | 9 ± 0.6 | CC50 at 3 days ([5]; AVA5 HCV replicon cells): > 300 µM; CC50 (AVA5 cells): > 300 µM; EC50 (HCV replication; 72 h, duration 3 days, expressed as 2′CMeC concentration, read-out: EC50, 2′CMeC): 1.7 ± 0.2 µM; EC90 (HCV replication; 72 h, duration 3 days, expressed as 2′CMeC concentration, read-out: EC90, 2′CMeC): 6.2 ± 0.5 µM; EC50 (HCV replication; 144 h, duration 6 days, expressed as 2′CMeC concentration, read-out: EC50, 2′CMeC): 1.3 ± 0.2 µM; EC90 (HCV replication; 144 h, duration 6 days, expressed as 2′CMeC concentration, read-out: EC90, 2′CMeC): 5.8 ± 0.9 µM; CC50 at 3 days [11]: > 1000 µM |

— patent publication USRE47404E1, “Viral hepatitis treatment” (priority 2006, dated 2019)
